# Target: T1, full-length MALT1 protein (Strep-MALT1(1-824)-His) (Homo sapiens, UniProt Q9UDY8)
# T1 sequence (Q9UDY8 1-824): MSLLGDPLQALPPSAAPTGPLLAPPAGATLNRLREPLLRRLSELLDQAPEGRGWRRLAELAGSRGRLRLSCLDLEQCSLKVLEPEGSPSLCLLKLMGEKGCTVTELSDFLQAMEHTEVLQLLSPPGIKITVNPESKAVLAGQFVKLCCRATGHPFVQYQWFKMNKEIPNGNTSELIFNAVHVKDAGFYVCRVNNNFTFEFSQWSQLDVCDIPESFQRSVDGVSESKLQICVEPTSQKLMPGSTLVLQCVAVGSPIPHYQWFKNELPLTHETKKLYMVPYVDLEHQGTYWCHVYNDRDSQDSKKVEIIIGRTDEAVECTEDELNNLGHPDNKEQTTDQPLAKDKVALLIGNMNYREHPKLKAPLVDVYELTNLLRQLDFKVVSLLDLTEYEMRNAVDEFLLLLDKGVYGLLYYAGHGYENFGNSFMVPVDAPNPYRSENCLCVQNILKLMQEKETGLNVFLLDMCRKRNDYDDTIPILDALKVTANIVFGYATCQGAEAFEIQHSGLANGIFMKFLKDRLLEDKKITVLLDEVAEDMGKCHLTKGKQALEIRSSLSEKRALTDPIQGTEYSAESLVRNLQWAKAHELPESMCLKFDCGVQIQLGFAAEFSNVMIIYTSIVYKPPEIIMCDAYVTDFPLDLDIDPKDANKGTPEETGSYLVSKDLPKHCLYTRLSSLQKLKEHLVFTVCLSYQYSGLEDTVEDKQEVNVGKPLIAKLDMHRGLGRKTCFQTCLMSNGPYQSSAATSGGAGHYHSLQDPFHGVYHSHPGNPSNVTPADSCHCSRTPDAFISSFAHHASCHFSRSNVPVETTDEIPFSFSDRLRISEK
# Test: biochemical
# 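Also: fluorogenic LRSR-AMC substrate cleavage by MALT1, 50 min compound preincubation then 4 h reaction at RT, 11-point dilution from 30 µM, scaled between enzyme-free and untreated enzyme controls.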
row,Compound,IC50 [nM]
1,"Cc1ccnc(-n2ncc(C(=O)Nc3cnc(-n4nccn4)c(C#N)c3)c2C(F)(F)F)c1Cl [Cpd 47, 1-(3-chloro-4-methylpyridin-2-yl)-N-(5-cyano-6-(2H-1,2,3-triazol-2-yl)pyridin-3-yl)-5-(trifluoromethyl)-1H-pyrazole-4-carboxamide]",537
2,"COc1ccnc(-n2ncc(C(=O)Nc3cnc(-n4nccn4)c(C#N)c3)c2C(F)(F)F)c1Cl [Cpd 66, 1-(3-chloro-4-methoxypyridin-2-yl)-N-(5-cyano-6-(2H-1,2,3-triazol-2-yl)pyridin-3-yl)-5-(trifluoromethyl)-1H-pyrazole-4-carboxamide]",3980
3,"Cc1c(F)ccc(-n2ncc(C(=O)Nc3cnc(-n4nccn4)c(C#N)c3)c2C(F)(F)F)c1Cl [Cpd 72, 1-(2-chloro-4-fluoro-3-methylphenyl)-N-(5-cyano-6-(2H-1,2,3-triazol-2-yl)pyridin-3-yl)-5-(trifluoromethyl)-1H-pyrazole-4-carboxamide]",603
4,"CS(=O)(=O)c1cccc(-n2ncc(C(=O)Nc3cnc(-n4nccn4)c(Cl)c3)c2C(F)(F)F)c1 [Cpd 74, N-(5-chloro-6-(2H-1,2,3-triazol-2-yl)pyridin-3-yl)-1-(3-(methylsulfonyl)phenyl)-5-(trifluoromethyl)-1H-pyrazole-4-carboxamide]",2880
5,"Cc1cc(S(C)(=O)=O)ccc1-n1ncc(C(=O)Nc2cnc(-n3nccn3)c(Cl)c2)c1C(F)(F)F [Cpd 75, N-(5-chloro-6-(2H-1,2,3-triazol-2-yl)pyridin-3-yl)-1-(2-methyl-4-(methylsulfonyl)phenyl)-5-(trifluoromethyl)-1H-pyrazole-4-carboxamide]",1070
6,"CC(C)c1ccccc1-n1ncc(C(=O)Nc2cnc(-n3nccn3)c(Cl)c2)c1C(F)(F)F [Cpd 76, N-(5-chloro-6-(2H-1,2,3-triazol-2-yl)pyridin-3-yl)-1-(2-isopropylphenyl)-5-(trifluoromethyl)-1H-pyrazole-4-carboxamide]",676
7,"Cc1c(F)ccc(-n2ncc(C(=O)Nc3cnc(-n4nccn4)c(Cl)c3)c2C(F)(F)F)c1C [Cpd 77, N-(5-chloro-6-(2H-1,2,3-triazol-2-yl)pyridin-3-yl)-1-(4-fluoro-2,3-dimethylphenyl)-5-(trifluoromethyl)-1H-pyrazole-4-carboxamide]",891
8,"O=C(Nc1cnc(-n2nccn2)c(Cl)c1)c1cnn(-c2ccc(F)c(F)c2)c1C(F)(F)F [Cpd 78, N-(5-chloro-6-(2H-1,2,3-triazol-2-yl)pyridin-3-yl)-1-(3,4-difluorophenyl)-5-(trifluoromethyl)-1H-pyrazole-4-carboxamide]",646
9,"N#Cc1cc(NC(=O)c2cnn(-c3cc(F)ccc3Cl)c2C(F)(F)F)cnc1-n1nccn1 [Cpd 80, 1-(2-chloro-5-fluorophenyl)-N-(5-cyano-6-(2H-1,2,3-triazol-2-yl)pyridin-3-yl)-5-(trifluoromethyl)-1H-pyrazole-4-carboxamide]",209
10,"N#Cc1cc(-n2ncc(C(=O)Nc3cnc(-n4nccn4)c(Cl)c3)c2C(F)(F)F)ccc1F [Cpd 85, N-(5-chloro-6-(2H-1,2,3-triazol-2-yl)pyridin-3-yl)-1-(3-cyano-4-fluorophenyl)-5-(trifluoromethyl)-1H-pyrazole-4-carboxamide]",2630
11,"N#Cc1cc(-n2ncc(C(=O)Nc3cnc(-n4nccn4)c(C#N)c3)c2C(F)(F)F)ccc1F [Cpd 86, 1-(3-cyano-4-fluorophenyl)-N-(5-cyano-6-(2H-1,2,3-triazol-2-yl)pyridin-3-yl)-5-(trifluoromethyl)-1H-pyrazole-4-carboxamide]",1550
12,"Cc1ncccc1-n1ncc(C(=O)Nc2cnc(-n3nccn3)c(C#N)c2)c1C(F)(F)F [Cpd 88, N-(5-cyano-6-(2H-1,2,3-triazol-2-yl)pyridin-3-yl)-1-(2-methylpyridin-3-yl)-5-(trifluoromethyl)-1H-pyrazole-4-carboxamide]",794
13,"O=C(Nc1cnc(-n2nccn2)c(Cl)c1)c1cnn(-c2ccc(F)c(F)c2F)c1C(F)(F)F [Cpd 89, N-(5-chloro-6-(2H-1,2,3-triazol-2-yl)pyridin-3-yl)-5-(trifluoromethyl)-1-(2,3,4-trifluorophenyl)-1H-pyrazole-4-carboxamide]",646
14,"Cc1ccncc1-n1ncc(C(=O)Nc2cnc(-n3nccn3)c(C#N)c2)c1C(F)(F)F [Cpd 91, N-(5-cyano-6-(2H-1,2,3-triazol-2-yl)pyridin-3-yl)-1-(4-methylpyridin-3-yl)-5-(trifluoromethyl)-1H-pyrazole-4-carboxamide]",513
15,"Cc1nc(Cl)ccc1-n1ncc(C(=O)Nc2cnc(-n3nccn3)c(C#N)c2)c1C(F)(F)F [Cpd 95, 1-(6-chloro-2-methylpyridin-3-yl)-N-(5-cyano-6-(2H-1,2,3-triazol-2-yl)pyridin-3-yl)-5-(trifluoromethyl)-1H-pyrazole-4-carboxamide]",316
16,"N#Cc1cc(NC(=O)c2cnn(-c3ccc(F)c(F)c3)c2C(F)(F)F)cnc1-n1nccn1 [Cpd 104, N-(5-cyano-6-(2H-1,2,3-triazol-2-yl)pyridin-3-yl)-1-(3,4-difluorophenyl)-5-(trifluoromethyl)-1H-pyrazole-4-carboxamide]",245

# Continued, values first:
row,IC50 [nM],Compound
1,5750,"COc1ccnc(-n2ncc(C(=O)Nc3cnc(-n4nccn4)c(Cl)c3)c2C(F)(F)F)c1Cl [Cpd 65, 1-(3-chloro-4-methoxypyridin-2-yl)-N-(5-chloro-6-(2H-1,2,3-triazol-2-yl)pyridin-3-yl)-5-(trifluoromethyl)-1H-pyrazole-4-carboxamide]"
2,525,"O=C(Nc1cnc(-n2nccn2)c(Cl)c1)c1cnn(-c2c(Cl)cncc2Cl)c1C(F)(F)F [Cpd 67, N-(5-chloro-6-(2H-1,2,3-triazol-2-yl)pyridin-3-yl)-1-(3,5-dichloropyridin-4-yl)-5-(trifluoromethyl)-1H-pyrazole-4-carboxamide]"
3,832,"Cc1c(F)ccc(-n2ncc(C(=O)Nc3cnc(-n4nccn4)c(Cl)c3)c2C(F)(F)F)c1Cl [Cpd 71, 1-(2-chloro-4-fluoro-3-methylphenyl)-N-(5-chloro-6-(2H-1,2,3-triazol-2-yl)pyridin-3-yl)-5-(trifluoromethyl)-1H-pyrazole-4-carboxamide]"
4,380,"O=C(Nc1cnc(-n2nccn2)c(Cl)c1)c1cnn(-c2cc(F)ccc2Cl)c1C(F)(F)F [Cpd 79, 1-(2-chloro-5-fluorophenyl)-N-(5-chloro-6-(2H-1,2,3-triazol-2-yl)pyridin-3-yl)-5-(trifluoromethyl)-1H-pyrazole-4-carboxamide]"
5,724,"Cc1cc(F)ncc1-n1ncc(C(=O)Nc2cnc(-n3nccn3)c(Cl)c2)c1C(F)(F)F [Cpd 87, N-(5-chloro-6-(2H-1,2,3-triazol-2-yl)pyridin-3-yl)-1-(6-fluoro-4-methylpyridin-3-yl)-5-(trifluoromethyl)-1H-pyrazole-4-carboxamide]"
6,575,"O=C(Nc1cnc(-n2nccn2)c(Cl)c1)c1cnn(-c2c(F)cccc2Cl)c1C(F)(F)F [Cpd 90, N-(5-chloro-6-(2H-1,2,3-triazol-2-yl)pyridin-3-yl)-1-(2-chloro-6-fluorophenyl)-5-(trifluoromethyl)-1H-pyrazole-4-carboxamide]"
7,501,"Cc1cccc(F)c1-n1ncc(C(=O)Nc2cnc(-n3nccn3)c(Cl)c2)c1C(F)(F)F [Cpd 92, N-(5-chloro-6-(2H-1,2,3-triazol-2-yl)pyridin-3-yl)-1-(2-fluoro-6-methylphenyl)-5-(trifluoromethyl)-1H-pyrazole-4-carboxamide]"
8,457,"O=C(Nc1cnc(-n2nccn2)c(Cl)c1)c1cnn(-c2c(Cl)cc(F)cc2Cl)c1C(F)(F)F [Cpd 93, N-(5-chloro-6-(2H-1,2,3-triazol-2-yl)pyridin-3-yl)-1-(2,6-dichloro-4-fluorophenyl)-5-(trifluoromethyl)-1H-pyrazole-4-carboxamide]"
9,447,"O=C(Nc1cnc(-n2nccn2)c(Cl)c1)c1cnn(-c2c(F)cc(F)cc2Cl)c1C(F)(F)F [Cpd 94, 1-(2-chloro-4,6-difluorophenyl)-N-(5-chloro-6-(2H-1,2,3-triazol-2-yl)pyridin-3-yl)-5-(trifluoromethyl)-1H-pyrazole-4-carboxamide]"
10,316,"Cc1ccc(F)cc1-n1ncc(C(=O)Nc2cnc(-n3nccn3)c(Cl)c2)c1C(F)(F)F [Cpd 96, N-(5-chloro-6-(2H-1,2,3-triazol-2-yl)pyridin-3-yl)-1-(5-fluoro-2-methylphenyl)-5-(trifluoromethyl)-1H-pyrazole-4-carboxamide]"
11,537,"O=C(Nc1cnc(-n2nccn2)c(Cl)c1)c1cnn(-c2ncc(F)cc2Cl)c1C(F)(F)F [Cpd 105, 1-(3-chloro-5-fluoropyridin-2-yl)-N-(5-chloro-6-(2H-1,2,3-triazol-2-yl)pyridin-3-yl)-5-(trifluoromethyl)-1H-pyrazole-4-carboxamide]"
12,776,"O=C(Nc1cnc(-n2nccn2)c(Cl)c1)c1cnn(-c2ccc(F)c(Cl)c2)c1C(F)(F)F [Cpd 108, 1-(3-chloro-4-fluorophenyl)-N-(5-chloro-6-(2H-1,2,3-triazol-2-yl)pyridin-3-yl)-5-(trifluoromethyl)-1H-pyrazole-4-carboxamide]"
